Source: ChEMBL document CHEMBL4699602, “Stapled and Xenopus Glucagon-Like Peptide 1 (GLP-1)-Based Dual GLP-1/Gastrin Receptor Agonists with Improved Metabolic Benefits in Rodent Models of Obesity and Diabetes” (J Med Chem, 2020)
Blank lines part the entries; values can stand above or below the compound they belong to. Activity calls are given as the source filed them. The calls are words filed in the database; no cut-off is given here. *1 amine or outer side, *2 acyl side, *3 side chain or, on linkers, in order; H or OH if unused. Where a SMILES comes first, the peptide text is derived from it. Bridges are numbered along the chain shown (N, C = ends). [ ]: non-standard residue; d: D form. X5 = O=C(O)CCCCCCCCCCCCCCCCC(=O)NC(CCC(=O)NCCOCCOCC(=O)NCCOCCOCC(=O)NCCCCCCNC(=O)C(CCCCNC(=O)CCN1C(=O)CC([*:2])C1=O)NC(=O)CCN1C(=O)CC([*:1])C1=O)C(=O)O; X3 = O=C(O)CCCCCCCCCCCCCCCCC(=O)NC(CCC(=O)NCCOCCOCC(=O)NCCCCCCNC(=O)C(CCCCNC(=O)CCN1C(=O)CC([*:1])C1=O)NC(=O)CCN1C(=O)CC([*:2])C1=O)C(=O)O; AEEA = NCCOCCOCC(=O)O; Aib = CC(C)(N)C(=O)O

Columns and labels:
[1] = target: T1, Glucagon-like peptide 1 receptor (Homo sapiens, UniProt P43220); test: Ratio of EC50 for agonist activity at human GLP-1R expressed in HEK293 cells in presence of 4.4% HSA to EC50 for agonist activity at human GLP-1R expressed in HEK293 cells in presence of 0% HSA; format: cell-based
T1 sequence (P43220 whole entry): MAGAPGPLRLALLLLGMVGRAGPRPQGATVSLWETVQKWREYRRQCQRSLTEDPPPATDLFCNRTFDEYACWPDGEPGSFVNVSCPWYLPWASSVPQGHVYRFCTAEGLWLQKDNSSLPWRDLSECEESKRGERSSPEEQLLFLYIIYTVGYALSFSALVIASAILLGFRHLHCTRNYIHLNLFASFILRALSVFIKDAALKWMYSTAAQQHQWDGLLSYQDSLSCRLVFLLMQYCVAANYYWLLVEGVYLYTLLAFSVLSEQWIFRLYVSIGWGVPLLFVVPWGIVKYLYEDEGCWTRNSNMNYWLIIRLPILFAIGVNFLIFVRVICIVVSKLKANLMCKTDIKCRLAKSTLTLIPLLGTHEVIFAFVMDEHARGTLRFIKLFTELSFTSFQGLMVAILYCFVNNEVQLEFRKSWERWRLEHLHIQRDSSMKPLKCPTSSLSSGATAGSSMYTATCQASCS

Mus musculus [2] = test: Hypoglycemic activity in non-fasted db/db mouse assessed as decrease in blood glucose concentration at 25 nmol/kg, sc by OGTT method; format: functional, organism-based
[3] = target: T1, Glucagon-like peptide 1 receptor; test: Agonist activity at human GLP-1R expressed in HEK293 cells assessed as stimulation of cAMP accumulation incubated for 20 mins in presence of 0% HSA; format: functional, cell-based
Mus musculus [4] = test: Reduction in fasted hyperglycemia in C57BL/6 mouse model of diet induced obesity at 25 nmol/kg, sc dosed every 2 days for 1 week relative to control; format: functional, organism-based; details: time 1.0 weeks
Mus musculus [5] = test: Hypoglycemic activity in non-fasted db/db mouse assessed as duration of time during which decrease in blood glucose concentration is observed at 25 nmol/kg, sc by OGTT method; format: functional
[6] = target: T1, Glucagon-like peptide 1 receptor; test: Agonist activity at human GLP-1R expressed in HEK293 cells assessed as stimulation of cAMP accumulation incubated for 20 mins in presence of 4.4% HSA; format: functional, cell-based
serum albumin = serum albumin (Homo sapiens, UniProt P02768); test: Binding affinity to human serum albumin in PBS pH 7.4 at 100 ug/mL incubated for 2 hrs by LC-MS/MS analysis relative to control; format: ADME; details: at 100 µg/mL, read-out: PB (converted)
Chain of serum albumin (P02768 whole entry): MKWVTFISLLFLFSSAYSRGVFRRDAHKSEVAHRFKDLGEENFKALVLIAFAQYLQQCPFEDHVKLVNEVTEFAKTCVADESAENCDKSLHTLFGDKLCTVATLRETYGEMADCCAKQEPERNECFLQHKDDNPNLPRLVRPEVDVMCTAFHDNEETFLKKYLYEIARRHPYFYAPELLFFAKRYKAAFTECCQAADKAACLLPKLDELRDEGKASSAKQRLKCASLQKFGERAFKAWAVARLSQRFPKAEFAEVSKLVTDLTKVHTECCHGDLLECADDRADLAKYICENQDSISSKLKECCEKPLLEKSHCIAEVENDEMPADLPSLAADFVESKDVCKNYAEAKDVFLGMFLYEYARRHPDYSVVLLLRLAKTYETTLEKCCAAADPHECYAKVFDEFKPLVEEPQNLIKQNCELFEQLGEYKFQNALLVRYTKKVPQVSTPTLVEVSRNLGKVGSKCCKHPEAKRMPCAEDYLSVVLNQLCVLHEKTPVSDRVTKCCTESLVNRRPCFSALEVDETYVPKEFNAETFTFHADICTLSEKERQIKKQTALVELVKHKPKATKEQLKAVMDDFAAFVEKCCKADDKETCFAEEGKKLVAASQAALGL

Mus musculus [7] = test: Reduction in body weight in C57BL/6 mouse model of diet induced obesity at 25 nmol/kg, sc dosed every 2 days for 1 week relative to control; format: functional; design: scale not given: the % may be the effect or the level left; details: time 1 weeks
Mus musculus [8] = test: Reduction in food intake in C57BL/6 mouse model of diet induced obesity at 25 nmol/kg, sc dosed every 2 days for 1 week relative to control; format: functional, organism-based; details: time 1.0 weeks
[9] = target: T2, Cholecystokinin receptor type A (Homo sapiens, UniProt P32238); test: Agonist activity at human CCK-1R expressed in HEK293 cells assessed as stimulation of ERK phosphorylation incubated for 5 mins; format: cell-based
T2 sequence (P32238 whole entry): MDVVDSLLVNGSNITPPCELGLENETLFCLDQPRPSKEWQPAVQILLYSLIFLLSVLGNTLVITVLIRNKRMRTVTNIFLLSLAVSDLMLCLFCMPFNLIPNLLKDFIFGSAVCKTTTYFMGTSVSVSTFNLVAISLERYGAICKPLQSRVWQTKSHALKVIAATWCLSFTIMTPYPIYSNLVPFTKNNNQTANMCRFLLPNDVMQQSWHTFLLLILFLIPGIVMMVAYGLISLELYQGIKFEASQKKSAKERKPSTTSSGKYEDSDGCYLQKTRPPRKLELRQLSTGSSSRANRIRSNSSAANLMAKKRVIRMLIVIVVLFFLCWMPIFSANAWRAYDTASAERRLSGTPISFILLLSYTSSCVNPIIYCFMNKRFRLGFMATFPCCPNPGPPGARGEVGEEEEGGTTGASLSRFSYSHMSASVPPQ

[10] = target: T3, Gastrin/cholecystokinin type B receptor (Homo sapiens, UniProt P32239); test: Agonist activity at human CCK-2R expressed in HEK293 cells assessed as stimulation of ERK phosphorylation incubated for 5 mins; format: cell-based
T3 sequence (P32239 whole entry): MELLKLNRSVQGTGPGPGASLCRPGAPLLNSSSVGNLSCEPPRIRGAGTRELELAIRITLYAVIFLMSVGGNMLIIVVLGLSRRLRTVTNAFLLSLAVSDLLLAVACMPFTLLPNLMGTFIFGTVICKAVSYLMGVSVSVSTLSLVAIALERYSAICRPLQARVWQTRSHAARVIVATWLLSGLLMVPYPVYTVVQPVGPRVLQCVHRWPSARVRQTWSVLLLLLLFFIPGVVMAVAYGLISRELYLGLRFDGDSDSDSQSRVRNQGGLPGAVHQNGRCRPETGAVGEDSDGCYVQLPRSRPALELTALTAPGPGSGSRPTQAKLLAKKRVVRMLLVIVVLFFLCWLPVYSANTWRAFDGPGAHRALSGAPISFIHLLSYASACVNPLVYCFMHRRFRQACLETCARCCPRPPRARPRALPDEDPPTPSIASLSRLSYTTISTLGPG

[11] = target: T1, Glucagon-like peptide 1 receptor; test: Agonist activity at human GLP-1R expressed in HEK293 cells assessed as stimulation of cAMP accumulation incubated for 20 mins; format: functional, cell-based
Mus musculus [12] = test: Hypoglycemic activity in ICR mouse assessed as decrease in blood glucose concentration at 25 nmol/kg, ip dosed 15 mins before test and measured up to 120 mins by OGTT method; format: functional, organism-based

Compound: CC[C@H](C)[C@H](NC(=O)[C@H](CC(C)C)NC(=O)[C@H](Cc1c[nH]c2ccccc12)NC(=O)[C@H](CCC(=O)O)NC(=O)[C@@H](NC(=O)[C@H](Cc1ccccc1)NC(=O)[C@@H]1CSC2CC(=O)N(CCC(=O)NC(C(=O)NCCCCCCNC(=O)COCCOCCNC(=O)COCCOCCNC(=O)CCC(NC(=O)CCCCCCCCCCCCCCCCC(=O)O)C(=O)O)CCCCNC(=O)CCN3C(=O)CC(SC[C@H](NC(=O)[C@H](Cc4ccc(O)cc4)NC(=O)[C@H](CCC(=O)O)NC(=O)[C@@H](NC(=O)[C@@H](NC(=O)[C@H](CC(=O)O)NC(=O)[C@H](CC(N)=O)NC(=O)[C@@H](NC(=O)[C@H](Cc4ccc(O)cc4)NC(=O)[C@@H](NC(=O)CNC(=O)[C@H](CCC(=O)O)NC(=O)C(C)(C)NC(=O)[C@@H](N)Cc4c[nH]cn4)[C@@H](C)O)[C@@H](C)O)C(C)C)[C@@H](C)O)C(=O)N[C@@H](CCC(=O)O)C(=O)N[C@@H](CCC(=O)O)C(=O)N[C@@H](CCC(=O)O)C(=O)N[C@@H](C)C(=O)N[C@@H](C)C(=O)N[C@@H](CCCCN)C(=O)N1)C3=O)C2=O)[C@@H](C)CC)C(=O)N[C@@H](CCCCN)C(=O)NCC(=O)N[C@@H](CCCCN)C(=O)N1CCC[C@H]1C(=O)N[C@@H](CO)C(=O)N[C@@H](CO)C(=O)NCC(=O)N[C@@H](C)C(=O)N1CCC[C@H]1C(=O)N1CCC[C@H]1C(=O)N1CCC[C@H]1C(=O)N[C@@H](CO)C(N)=O (some centres not stated) (HELM PEPTIDE1{H.[Aib].E.G.T.Y.T.N.D.V.T.E.Y.C.E.E.E.A.A.K.C.F.I.E.W.L.I.K.G.K.P.S.S.G.A.P.P.P.S.[am]}|CHEM1{[O=C(O)CCCCCCCCCCCCCCCCC(=O)NC(CCC(=O)NCCOCCOCC(=O)NCCOCCOCC(=O)NCCCCCCNC(=O)C(CCCCNC(=O)CCN1C(=O)CC([*:1])C1=O)NC(=O)CCN1C(=O)CC([*:2])C1=O)C(=O)O]}$PEPTIDE1,CHEM1,14:R3-1:R1|PEPTIDE1,CHEM1,21:R3-1:R2$$$V2.0)
Ratio EC50 [1]: 108
Activity (Mus musculus [2]): Active
EC50 [3]: 0.025 nM
Activity (Mus musculus [4]): Active
Time (Mus musculus [5]): 24 h
EC50 [6]: 2.7 nM
fraction unbound at 2 h, 100 ug/mL (serum albumin): 0.047
Activity (Mus musculus [7]): 13.8%

Compound: H-HGEGTYTNDVTEYLEEEAAKEFIEWLIKGKPSSGAPPPS-NH2
Activity (Mus musculus [12]): Active
EC50 [9]: > 1000 nM
EC50 [10]: > 1000 nM
EC50 [11]: 0.034 nM

Now from value to compound, other results behind:

Ratio EC50 [1]: 79.4
EC50 [3]: 0.034 nM
EC50 [6]: 2.7 nM
fraction unbound at 2 h, 100 ug/mL (serum albumin): 0.033
Compound: H-H[Aib]EGTYTNDVTEYLEEEAAKCFIEWLICGKPSSGAPPSKKKKKK-NH2 (linker 21-28 via X5)
Activity (Mus musculus [2]): Active
Activity (Mus musculus [4]): Active
Time (Mus musculus [5]): 24 h
Activity (Mus musculus [7]): 10.6%

Ratio EC50 [1]: 55.1
EC50 [3]: 0.069 nM
EC50 [6]: 3.8 nM
fraction unbound at 2 h, 100 ug/mL (serum albumin): 0.084
Compound: CC[C@H](C)[C@@H]1NC(=O)[C@H](CC(C)C)NC(=O)[C@H](Cc2c[nH]c3ccccc23)NC(=O)[C@H](CCC(=O)O)NC(=O)[C@H]([C@@H](C)CC)NC(=O)[C@H](Cc2ccccc2)NC(=O)[C@@H](NC(=O)[C@H](CCCCN)NC(=O)[C@H](C)NC(=O)[C@H](C)NC(=O)[C@H](CCC(=O)O)NC(=O)[C@H](CCC(=O)O)NC(=O)[C@H](CCC(=O)O)NC(=O)[C@H](CC(C)C)NC(=O)[C@H](Cc2ccc(O)cc2)NC(=O)[C@H](CCC(=O)O)NC(=O)[C@@H](NC(=O)[C@@H](NC(=O)[C@H](CC(=O)O)NC(=O)[C@H](CC(N)=O)NC(=O)[C@@H](NC(=O)[C@H](Cc2ccc(O)cc2)NC(=O)[C@@H](NC(=O)CNC(=O)[C@H](CCC(=O)O)NC(=O)C(C)(C)NC(=O)[C@@H](N)Cc2c[nH]cn2)[C@@H](C)O)[C@@H](C)O)C(C)C)[C@@H](C)O)CSC2CC(=O)N(CCC(=O)NC(C(=O)NCCCCCCNC(=O)COCCOCCNC(=O)CCC(NC(=O)CCCCCCCCCCCCCCCCC(=O)O)C(=O)O)CCCCNC(=O)CCN3C(=O)CC(SC[C@@H](C(=O)NCC(=O)N[C@@H](CCCCN)C(N)=O)NC1=O)C3=O)C2=O (some centres not stated) (HELM PEPTIDE1{H.[Aib].E.G.T.Y.T.N.D.V.T.E.Y.L.E.E.E.A.A.K.C.F.I.E.W.L.I.C.G.K.[am]}|CHEM1{[O=C(O)CCCCCCCCCCCCCCCCC(=O)NC(CCC(=O)NCCOCCOCC(=O)NCCCCCCNC(=O)C(CCCCNC(=O)CCN1C(=O)CC([*:2])C1=O)NC(=O)CCN1C(=O)CC([*:1])C1=O)C(=O)O]}$PEPTIDE1,CHEM1,21:R3-1:R1|PEPTIDE1,CHEM1,28:R3-1:R2$$$V2.0)
Activity (Mus musculus [2]): Active
Activity (Mus musculus [4]): Active
Time (Mus musculus [5]): 24 h
Activity (Mus musculus [8]): Active
Activity (Mus musculus [7]): 13.4%

EC50 [9]: > 1000 nM
EC50 [10]: 15.2 nM
EC50 [11]: 0.055 nM
Compound: CC[C@H](C)[C@H](NC(=O)[C@H](CC(C)C)NC(=O)[C@H](Cc1c[nH]c2ccccc12)NC(=O)[C@H](CCC(=O)O)NC(=O)[C@@H](NC(=O)[C@H](Cc1ccccc1)NC(=O)[C@@H]1CSC2CC(=O)N(CCC(=O)NC(C(=O)NCCCCCCNC(=O)COCCOCCNC(=O)CCC(NC(=O)CCCCCCCCCCCCCCCCC(=O)O)C(=O)O)CCCCNC(=O)CCN3C(=O)CC(SC[C@H](NC(=O)[C@H](Cc4ccc(O)cc4)NC(=O)[C@H](CCC(=O)O)NC(=O)[C@@H](NC(=O)[C@@H](NC(=O)[C@H](CC(=O)O)NC(=O)[C@H](CC(N)=O)NC(=O)[C@@H](NC(=O)[C@H](Cc4ccc(O)cc4)NC(=O)[C@@H](NC(=O)CNC(=O)[C@H](CCC(=O)O)NC(=O)C(C)(C)NC(=O)[C@@H](N)Cc4c[nH]cn4)[C@@H](C)O)[C@@H](C)O)C(C)C)[C@@H](C)O)C(=O)N[C@@H](CCC(=O)O)C(=O)N[C@@H](CCC(=O)O)C(=O)N[C@@H](CCC(=O)O)C(=O)N[C@@H](C)C(=O)N[C@@H](C)C(=O)N[C@@H](CCCCN)C(=O)N1)C3=O)C2=O)[C@@H](C)CC)C(=O)N[C@@H](CCCCN)C(=O)NCC(=O)N[C@@H](CCCCN)C(=O)NCCOCCOCC(=O)NCCOCCOCC(=O)N[C@@H](Cc1ccc(O)cc1)C(=O)NCC(=O)N[C@@H](Cc1c[nH]c2ccccc12)C(=O)N[C@@H](CC(C)C)C(=O)N[C@@H](CC(=O)O)C(=O)N[C@@H](Cc1ccccc1)C(N)=O (some centres not stated) (H-H[Aib]EGTYTNDVTEYCEEEAAKCFIEWLIKGK[AEEA][AEEA]YGWLDF-NH2; linker 14-21 via X3)
